This is an account of results in patent US6750330B1, “Lyophilized tubulins” (priority 1998, dated 2004).

SMILES strings stand for the structures.

This assay has as its system MAP-rich tubulin. Briefly: 96-well plate polymerization assay of tubulin ligands with lyophilized active tubulin. It is filed as biochemical, bovine. Particulars: for rate of polymerization with increasing concentration: 20 minutes at 24° C., 100 μg/well MAP-rich tubulin; for effect on microtubule polymerization (O.D. 340 nm): 60 minutes at 24° C., 96-well plate.

Protocol: The dried powder was resuspended to 1 mg/ml protein in the G-PEM buffer that contained different tubulin ligands. The reactions were incubated at 24° C. and the optical density was determined between T=O and T=60 min. Wells A1, A2—duplicate control reactions; wells B1, B2—Duplicate 3 uM nocodazole reactions, and wells C1, C2—Duplicate 3 uM paclitaxel reactions. Other duplicate wells contained buffer with a random concentration of nocodazole between 0-30 uM.
Similar protocols were performed as in FIG. 9 legend except that paclitaxel was present at different concentrations and assays were performed in triplicate. Average nucleation (Onset) times, polymerization rates and maximum OD340 nm were compared to the control reactions (no drug) using CytoDYNAMIX Screen™ data analysis package (Cytoskeleton, Inc.).
Similar protocols were performed as in FIG. 9 legend except that nocodazole was present at different concentrations and assays were performed in triplicate. Average nucleation (Onset) times, polymerization rates and maximum OD340 nm were compared to the control reactions (no drug) using CytoDYNAMIX Screen™ data analysis package (Cytoskeleton, Inc.).
Nocodazole is similarly used as a negative control since it depolymerizes microtubules. Substances that may potentially have an effect on microtubule polymerization can be assayed by this method in which the optical density was measured at 340 nm over 60 minutes at a temperature sufficient to support polymerization (i.e., 15-45° C., preferably 24° C. for MAP-rich or 37° C. for pure tubulin).
MAP-rich tubulin (100 μg/well) was lyophilized under the optimal conditions described in Example 1, in a 96-well plate. Ninety-six wells in a 96-well plate of lyophilized tubulin can be simultaneously reconstituted and their polymerization measured (See FIG. 8). […] In a similar manner, using an 8-channel hand held pipettor, various random nocodazole concentrations were tested for activity. In addition, controls were added to the assay. […] Nocodazole was similarly used as a negative control since it depolymerizes microtubules. The optical density was measured at 340 nm over 60 minutes at 24° C. as an indication of microtubule polymerization (See FIG. 9).
Paclitaxel and nocodazole, anti-tumor agents, were assayed in G-PER buffer with lyophilized active tubulin.

Regarding `COC(=O)Nc1nc2ccc(C(=O)c3cccs3)cc2[nH]1` [nocodazole], the “rate of polymerization with increasing concentration” value is given as “decrease in the rate of polymerization” and the “effect on microtubule polymerization (O.D. 340 nm)” value was “negative”.
In the same order, the values of `CC(=O)O[C@H]1C(=O)[C@@]2(C)[C@H]([C@H](OC(=O)c3ccccc3)[C@]3(O)C[C@H](OC(=O)[C@H](O)[C@@H](NC(=O)c4ccccc4)c4ccccc4)C(C)=C1C3(C)C)[C@]1(OC(C)=O)CO[C@@H]1C[C@@H]2O` [paclitaxel] are “increased rate of polymerization” and “enhancing”.
